The record followed here is patent publication US10253071B2, “Selectin inhibitors, composition, and uses related thereto” (Beth Israel Deaconess Medical Center, Inc., priority 2014, dated 2019).

Read-outs that look alike come from different tables or passages of the source. Square brackets hold non-standard residues; d marks the D form. Peptide text beside a SMILES is read from it. * marks the point of attachment. X1 = CC(=O)N[C@@H]1[C@@H](O[C@@H]2O[C@H](CO)[C@H](O)[C@H](O)[C@H]2O)[C@@H](O)[C@@H](CO[C@@H]2O[C@H](CO)[C@@H](O[C@@H]3O[C@H](CO)[C@H](O)[C@H](O[C@]4(C(=O)O)C[C@H](O)[C@@H](NC(C)=O)[C@H]([C@H](O)[C@H](O)CO)O4)[C@H]3O)[C@H](O[C@@H]3O[C@@H](C)[C@@H](O)[C@@H](O)[C@@H]3O)[C@H]2NC(C)=O)O[C@@H]1*; Phe(4-CH2SO3H) = N[C@@H](Cc1ccc(CS(=O)(=O)O)cc1)C(=O)O; Mca = COc1ccc2c(CC(=O)*)cc(=O)oc2c1

The subject of data set [1] is P-selectin (recombinant Ig chimera). Put plainly: Microarray binding screen of glycopeptide mimics, P-selectin. The settings on record: selectin Ig chimeras 5-20 μg/mL, Alexa-488 anti-human IgG. Also noted: species or system human and mouse. The protocol:
(§1) Bound peptides were detected using Alexa-488 labeled anti-human IgG antibody (5 μg/mL). Three lectins RCA-1, AAL, and PNA were used to confirm the sequence of enzymatic steps. Monoclonal antibodies CHO131, PSG2 antibody and PL-1 were used to confirm the presence of SLex, tyrosine sulfates, and the peptide sequence, respectively. Biacore binding analysis to human P-selectin with observed rate constants for (D) GSnP-6, kon 3.1×10^5 M^−1s^−1, koff 6.9×10^3 M^−1s^−; GSn2P-6, kon6.4×10^5 M^−1s^−1, koff 6.8×10^3 M^−1s. Biacore binding analysis to mouse P-selectin with observed rate constants for (E) GsnP-6, kon 4.9×10^4 M^−1s^−1, koff 8.0×10^3 M^−1s^−; GSn2P-6 kon 5.3×10^4 M^−1s^−1, koff 9.0×10^3 M^−1s. (F) Temperature- and pH-dependent stability studies of GSnP-6.
Binding affinities of PSGL-1 mimics towards selectins was initially screened using a microarray in which glycosulfopeptides and glycan standards (Sialyl Le^x, NA2, NA2,3, NA2,6 and LNnT) were printed on a NHS-activated glass slide. The slide was then incubated with recombinant Ig chimeras of P-, L-, or E-selectin (5-20 μg/mL) followed by Alexa-488 labeled anti-human IgG antibody (5 μg/mL). […] Binding of glycopeptides mimics to selectins was […] dependent and inhibited by EDTA.

The target in data set [2] is T1, mouse P-selectin (Mus musculus, UniProt Q01102).
T1 sequence (Q01102 42-768): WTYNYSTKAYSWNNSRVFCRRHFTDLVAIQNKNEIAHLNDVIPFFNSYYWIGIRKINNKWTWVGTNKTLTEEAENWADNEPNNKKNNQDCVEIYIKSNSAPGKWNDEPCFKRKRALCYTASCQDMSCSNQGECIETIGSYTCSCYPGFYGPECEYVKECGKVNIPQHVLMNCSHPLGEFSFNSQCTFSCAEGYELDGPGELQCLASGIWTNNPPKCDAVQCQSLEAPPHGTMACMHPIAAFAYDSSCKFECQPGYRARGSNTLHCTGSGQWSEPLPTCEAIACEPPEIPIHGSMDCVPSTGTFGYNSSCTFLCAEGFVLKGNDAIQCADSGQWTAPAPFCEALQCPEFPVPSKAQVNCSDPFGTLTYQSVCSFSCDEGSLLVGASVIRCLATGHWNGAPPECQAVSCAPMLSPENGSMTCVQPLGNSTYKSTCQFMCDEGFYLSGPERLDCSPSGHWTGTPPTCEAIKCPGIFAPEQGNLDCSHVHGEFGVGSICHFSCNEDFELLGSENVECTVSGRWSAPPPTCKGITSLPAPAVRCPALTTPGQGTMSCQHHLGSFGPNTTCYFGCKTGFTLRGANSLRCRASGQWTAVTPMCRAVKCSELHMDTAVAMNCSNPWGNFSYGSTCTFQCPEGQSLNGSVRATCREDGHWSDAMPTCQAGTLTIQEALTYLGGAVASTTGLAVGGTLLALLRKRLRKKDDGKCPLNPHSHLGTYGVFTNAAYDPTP
Put plainly: Biacore binding assay, mouse P-selectin. The protocol: as §1
Dissociation constants (Kd) were determined using a Biacore binding assay after initial capture of biotinylated GS(n)P-6 onto streptavidin-coated sensor chips followed by flow through of P-, L- or E-sel-Ig (2.5 to 60 μg/mL). […] The Kd of GSnP-6 to murine P-selectin was ˜9-fold lower than to human P-selectin.
In general terms: Surface plasmon resonance follows binding to a sensor surface in real time, without labels.

Data set [3] is described as follows: Chemical stability at low pH and at high temperature (RP-HPLC). In kind it is physicochemical. The settings on record: sodium acetate/acetic acid buffer pH 5, 37° C.; and 2 mM phosphate buffer pH 7.5, 60° C. The protocol: as §1
The chemical stability of GSnP-6 was evaluated under low pH conditions by incubating the compound in sodium acetate/acetic acid buffer at pH 5, 37° C., as well as under high temperature conditions by incubation in 2 mM phosphate buffer at pH 7.5, 60° C. (FIG. 3E).

Data set [4] addresses T2, recombinant human P-selectin Fc chimera (Homo sapiens, UniProt P16109).
T2 sequence (P16109 42-830): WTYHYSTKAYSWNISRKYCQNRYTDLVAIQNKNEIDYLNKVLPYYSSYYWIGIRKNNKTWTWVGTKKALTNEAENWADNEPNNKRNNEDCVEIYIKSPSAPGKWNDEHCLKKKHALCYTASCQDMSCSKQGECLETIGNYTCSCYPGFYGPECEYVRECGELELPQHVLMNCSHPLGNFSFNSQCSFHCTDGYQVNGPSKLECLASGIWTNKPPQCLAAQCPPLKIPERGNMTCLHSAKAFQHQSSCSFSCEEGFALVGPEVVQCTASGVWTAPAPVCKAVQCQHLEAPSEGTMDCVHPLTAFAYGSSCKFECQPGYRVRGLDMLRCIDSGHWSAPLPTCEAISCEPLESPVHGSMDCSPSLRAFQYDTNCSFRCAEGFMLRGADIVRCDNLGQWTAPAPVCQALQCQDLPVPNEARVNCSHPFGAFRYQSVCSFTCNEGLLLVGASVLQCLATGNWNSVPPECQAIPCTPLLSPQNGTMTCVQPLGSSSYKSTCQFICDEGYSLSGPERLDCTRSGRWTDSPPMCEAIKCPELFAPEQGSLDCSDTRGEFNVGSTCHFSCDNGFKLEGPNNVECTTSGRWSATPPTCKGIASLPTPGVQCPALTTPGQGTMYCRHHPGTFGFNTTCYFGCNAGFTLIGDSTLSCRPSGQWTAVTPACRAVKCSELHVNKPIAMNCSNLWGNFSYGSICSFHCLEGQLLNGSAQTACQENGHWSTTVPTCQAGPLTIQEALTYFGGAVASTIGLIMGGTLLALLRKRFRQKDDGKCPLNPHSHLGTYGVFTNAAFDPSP
Put plainly: Flow cytometry, inhibition of human P-selectin Fc chimera binding to human leukocytes. In kind it is cell-based. How it is done:
Flow cytometry was used to characterize the ability of GSnP-6 to block binding of selectin-IgG chimeras to murine and human leukocytes. Recombinant mouse P- or L-selectin Fc chimera (2 μg/mL) was incubated with murine neutrophils and GSnP-6 (0-30 μM). Likewise, recombinant human P-selectin or L-selectin Fc chimera were incubated with human peripheral blood neutrophils and monocytes, as well as the human U937 cell line in the presence of GSnP-6 (0-30 μM). Binding of selectin-IgG chimeras was detected with PE-conjugated anti-IgG antibody, quantified as mean fluorescent intensity, and plotted as percent inhibition. Specificity was confirmed with selectin-specific blocking antibodies.
For orientation: Flow cytometry measures light scatter and fluorescence of single cells or particles in a stream.

Take `COc1ccc2c(CC(=O)NCCCC[C@H](N)C(=O)N[C@@H](CCC(=O)O)C(=O)N[C@@H](Cc3ccc(CS(=O)(=O)O)cc3)C(=O)N[C@@H](CCC(=O)O)C(=O)N[C@@H](Cc3ccc(CS(=O)(=O)O)cc3)C(=O)N[C@@H](CC(C)C)C(=O)N[C@@H](CC(=O)O)C(=O)N[C@@H](Cc3ccc(CS(=O)(=O)O)cc3)C(=O)N[C@@H](CC(=O)O)C(=O)N[C@@H](Cc3ccccc3)C(=O)N[C@@H](CC(C)C)C(=O)N3CCC[C@H]3C(=O)N[C@@H](CCC(=O)O)C(=O)N[C@H](C(=O)N[C@@H](CCC(=O)O)C(=O)N3CCC[C@H]3C(=O)N[C@@H](CC(C)C)C(=O)O)[C@@H](C)O[C@H]3O[C@H](CO[C@@H]4O[C@H](CO)[C@@H](O[C@@H]5O[C@H](CO)[C@H](O)[C@H](O[C@]6(C(=O)O)C[C@H](O)[C@@H](NC(C)=O)[C@H]([C@H](O)[C@H](O)CO)O6)[C@H]5O)[C@H](O[C@@H]5O[C@@H](C)[C@@H](O)[C@@H](O)[C@@H]5O)[C@H]4NC(C)=O)[C@H](O)[C@H](O[C@@H]4O[C@H](CO)[C@H](O)[C@H](O)[C@H]4O)[C@H]3NC(C)=O)cc(=O)oc2c1` [GSnP-6] (H-K(Mca)E[Phe(4-CH2SO3H)]E[Phe(4-CH2SO3H)]LD[Phe(4-CH2SO3H)]DFLPET(X1)EPL-OH): the “binding to P-selectin compared with E- or L-selectin” value in data set [1] is on record as “bound to P-selectin more strongly than to E- or L-selectin”. For the same molecule, the “Kd to murine P-selectin relative to human P-selectin” value in data set [2] (printed as fold lower than to human P-selectin) is recorded as about 9 fold. Also, in data set [2] (read-out: koff, mouse P-selectin), the koff was 0.008 s⁻¹. Besides, in data set [2] (read-out: kon, mouse P-selectin), the kon amounted to 49000 M⁻¹ s⁻¹. Further, in data set [3], the “chemical stability (degraded products by RP-HPLC)” value is listed as “degraded products were not detected”. Moreover, the concentration for half-maximal inhibition (IC50) was about 8 µM in data set [4] (human U-937 cells, GSnP-6 0-30 μM, read-out: IC50, P-selectin dependent interactions, human U-937 cells); about 30 µM in data set [4] (human peripheral blood monocytes, read-out: IC50, P-selectin dependent interactions, human monocytes); about 30 µM in data set [4] (human peripheral blood neutrophils (PMN), read-out: IC50, P-selectin dependent interactions, human PMN).

The koff is the rate constant with which the complex falls apart. In general, kon refers to a measure of how fast the partners come together. The term IC50 denotes the concentration at which inhibition is half-maximal.
